Data set [1] relates to adjuvant arthritis. In words: Adjuvant arthritis, preventive experiment (Pearson). The class given is in vivo, male rats, Wistar-Lewis strain. The following applies: for ED50: Rattus norvegicus, oral, daily days 1-17, reduction in paw volume increase. How it is done: (§1) The investigations were carried out by the method of Pearson (Arthrit.Rheum. 2, 440 (1959)). The experimental animals used were male rats of a Wistar-Lewis strain, having a body weight of between 130 and 200 g. The compounds to be compared were administered orally, daily from the 1st to the 17th day of the experiment. Animals of the control group were given the solvent only. For each dosage, and in the control group, a group of 8 animals was used. The criterion of the activity was the reduction in the paw volume increase compared to the untreated control group. The ED50 values were determined graphically from the dose/effect curve.

The test system of data set [2] is adjuvant arthritis. In words: Adjuvant arthritis, Perper modification. The class given is in vivo, male rats, Wistar-Lewis strain. The following applies: for ED50: Rattus norvegicus, 504 h, oral, days 1-12, paw volume on 21st day, read-out: Adjuvant arthritis Perper (2) ED50; for Adjuvant arthritis Perper (2) ED50: result in words. The method, then: as §1
The experimental animals and experimental methods were as under 1., but the animals were only treated from the 1st to the 12th day of the experiment; after a treatment-free interval of 9 days, the paw volume was determined on the 21st day.

Data set [3] concerns allergic encephalomyelitis. Briefly: Allergic encephalomyelitis (Levine). The class given is in vivo, male rats, Wistar-Lewis strain. The following applies: for Allergic encephalomyelitis (3) % inhibition: days 1-12, index on 11th day. The method, then:
Known non-steroid antiphlogistic agents are here at most very slightly active.
The investigations were carried out by the method of Levine (Arch.int.Pharmacodyn. 230, 309 (1977)). The experimental animals used were male rats of a Wistar-Lewis strain having a body weight of between 180 and 220 g. The encephalomyelitis was induced by injection of complete Freund adjuvant to which freshly withdrawn homogenized rat spinal marrow extract and Bordetella pertussis vaccine had been added. The compounds to be compared were administered orally once a day from the 1st to the 12th day. For each dose, and for the control group, a group of 10 animals was used. From the 7th day of the experiment, the paralysis symptoms were grouped together daily in one index with the mortality and the change of body weight. […]
loss of 20 g of body weight in each case: 1 point […]
hindquarters paralysis: 3 points paralysis of the entire body: 5 points
The assessment criterion was the percentage inhibition of the index compared to untreated control animals on the 11th day of the experiment. On conclusion of the experiment, blood was taken from the surviving animals to determine the erythrocyte count and leucocyte count as well as the hematocrit.

Data set [4] can be described thus: in vivo. Also noted: species or system male Sprague-Dawley rats. The following applies: rat, in vivo; for selectivity ratio: acute UD50 / ED50, read-out: Therapeutic index acute UD50/ED50. The method, then: (§2) The investigations were carried out in groups of 10 male Sprague-Dawley rats having a body weight of 200-300 g. 48 hours before administration of the compounds to be compared, and up to the time of killing the animals, food was withheld, but there was free access to drinking water. The rats were killed 24 hours after oral administration, and the stomach was removed under running water and inspected for lesions of the mucous membrane. All macroscopically visible lesions were rated as ulcers.

Data set [5] can be described thus: Sub-acute ulcerogenic action. The class given is in vivo, male Sprague-Dawley rats. The following applies: rat, in vivo, po; sub-acute UD50 / ED50; read-out: Therapeutic index sub-acute UD50/ED50. The method, then:
as §2, with “ulcers. The proportion of animals with ulcers at each dose was determined, as was the UD50 using the method of Litchfield and Wilcoxon (J.Pharmacol.exp.Ther. 96, 99 (1949)).” for “ulcers.”
(§3) The experimental animals and the experimental method were as under 4, with the following modification: the compounds to be compared were administered orally once daily for 4 days to normally fed rats and the animals were killed on the 5th day, after food had been withheld for 24 hours. According to Shriver, this method gives more informative results than a single administration, since medicamentous therapy of rheumatic patients also requires repeated treatment (Toxicology and Appl. Pharmacology 32, 73 (1975)).

For data set [6], the system named is stomach mucous membrane. In words: Sub-acute ulcerogenic action. The class given is in vivo, male Sprague-Dawley rats. The following applies: sub-acute, relative to compound B. How it is done: as §2, with “ulcers. The proportion of animals with ulcers at each dose was determined, as was the UD50 using the method of Litchfield and Wilcoxon (J.Pharmacol.exp.Ther. 96, 99 (1949)).” for “ulcers.”
as §3

The nature of data set [7]: Acute toxicity, intraperitoneal administration to mice. Also noted: species or system NMRI mice. The following applies: mouse, in vivo, ip. From the text:
(§4) 6 animals were used per dose.

Data set [8] is described as follows: in vivo. The following applies: rat, in vivo, po. How it is done: (§5) The acute toxicity were determined by standard methods on NMRI mice and on rats of the Wister and Sprague-Dawley strains. 6 animals were used per dose. The LD50 values were determined by the method of Litchfield and Wilcoxon.
In the next data set the test system is rats. In words: in vivo. The following applies: oral toxicity, relative to compound B. The method, then: as §5
Data set [9] has as its system stomach mucous membrane. Briefly: in vivo. Also noted: species or system male Sprague-Dawley rats. The following applies: single oral dose, fasted rats, 24 hours. The method, then:
as §2

A short description of data set [10]: Acute toxicity, oral administration, mice. The following applies: mouse, in vivo; for selectivity ratio: oral LD50 in mice / ED50, read-out: Therapeutic index LD50/ED50.
From the text: as §4

The mark [11] stands for this setting: in the therapeutic dosage range.

Like-named read-outs stand apart in the source and are kept apart here.

For the molecule `Cc1oncc1C(=O)Nc1ccc(C(F)(F)F)cc1` [compound A, 5-Methylisoxazole-4-carboxylic acid 4-trifluoromethyl-anilide], the “activity times greater than that of compound B” value in the data set on adjuvant arthritis [1] (ED50, adjuvant arthritis, preventive, relative to compound B) is given as 6.5 times. Further, the median effective dose (ED50) in the data set on adjuvant arthritis [1] is 2.3 mg/kg; with adjuvant arthritis [2], 4.5 mg/kg. For the same molecule, in the data set on adjuvant arthritis [2] (setting [11]), the “inhibition of immunopathological processes, Perper adjuvant arthritis test” value is “inhibits immunopathological processes”. Also, the “Allergic encephalomyelitis (3) % inhibition” value in data set [3] (dose 10 mg/kg oral) stood at 100%. The “inhibition of immunopathological processes, allergic encephalomyelitis test” value in data set [3] (setting [11]) was “inhibits immunopathological processes”. The “100% inhibition of the paralysis symptoms in allergic encephalomyelitis without gastro-intestinal bleeding” value in data set [3] (rat, in vivo) was “possible”. The molecule further returned a TD50 at 24 h in the data set “in vivo [4]” (po) of 57 mg/kg. The figures for the selectivity ratio (in the data set “in vivo [4]” (po); in [5]; in “in vivo [8]”) were 25, 33 and 100, respectively. Moreover, the “therapeutic index (UD50/ED50; sub-acute) times greater than that of compound B” value in the data set on stomach mucous membrane [6] is 4.1 times. The median lethal dose (LD50) in data set [7] was 150 to 300 mg/kg; in the data set “in vivo [8]”, 235 mg/kg. In addition, the “therapeutic range (LD50/ED50) times greater than that of compound B” value in the data set with rats is reported as 2.4 times.
Take `Cc1oncc1C(=O)Nc1ccc(F)cc1` [compound B, 5-methylisoxazole-4-carboxylic acid 4-fluoroanilide]: the ED50 stood at 15 mg/kg with adjuvant arthritis [1] and 25 mg/kg with adjuvant arthritis [2]. The “Allergic encephalomyelitis (3) % inhibition” value in data set [3] (dose 25 mg/kg oral) was found to be 43%. Also, in data set [3] (dose 50 mg/kg oral), the “Allergic encephalomyelitis (3): finding printed in the % inhibition column” value is on record as “anaemia”. Besides, the selectivity ratio was found to be 17 in “in vivo [4]” (po), 8 in data set [5] and 41 in “in vivo [8]”. Besides, the “Ulcerogenic character acute UD50” value in the data set with stomach mucous membrane [9] was 250 mg/kg. For the same molecule, the LD50 in data set [7] was 200 to 400 mg/kg; in the data set “in vivo [8]” it was 620 mg/kg.
On to `Cc1oncc1C(=O)Nc1cccc(C(F)(F)F)c1` [compound C, 5-methylixoazole-4-carboxylic acid 3-trifluoromethylanilide], for which the median effective dose (ED50) in the data set with adjuvant arthritis [1] is greater than 50 mg/kg. The “Adjuvant arthritis Perper (2) ED50” value in the data set with adjuvant arthritis [2] (up to 20.0 (mg/kg)) was “inactive”. Further, the “Allergic encephalomyelitis (3) % inhibition” value in data set [3] (dose 10 mg/kg oral) came to 0%. In the data set “in vivo [4]” (po), this molecule showed a TD50 at 24 h of roughly 600 mg/kg. In addition, the selectivity ratio is less than 12 in “in vivo [4]” (po) and less than 15 in [10]. For the same molecule, the median lethal dose (LD50) was 100 to 250 mg/kg in data set [7] and 740 mg/kg in data set [10] (po).
As to `Cc1oncc1C(=O)Nc1cc(C(F)(F)F)cc(C(F)(F)F)c1` [compound D, 5-methylisoxazole-4-carboxylic acid 3,5-bis-trifluoromethylanilide], the ED50 was roughly 50 mg/kg in the data set on adjuvant arthritis [1] and greater than 50 mg/kg with adjuvant arthritis [2]. For the same molecule, the values for the selectivity ratio (in “in vivo [4]” (po); in [10]) were roughly 2 and 50, respectively. Besides, in “in vivo [4]” (single oral dose, fasted rats, 24 hours, read-out: Ulcerogenic character acute UD50), the TD50 at 24 h stood at 100 mg/kg. The LD50 in data set [7] is greater than 500 mg/kg.
For the molecule `Cc1oncc1C(=O)Nc1ccccc1C(F)(F)F` [compound E, 5-methylisoxazole-4-carboxylic acid 2-trifluoromethylanilide], the ED50 in the data set on adjuvant arthritis [1] is greater than 50 mg/kg. For the same molecule, in the data set with adjuvant arthritis [2] (up to 20.0 (mg/kg)), the “Adjuvant arthritis Perper (2) ED50” value is “inactive”. Also, the “Allergic encephalomyelitis (3) % inhibition” value in data set [3] (dose 10 mg/kg oral) was determined as 0%. In the data set “in vivo [4]” (po), the TD50 at 24 h was 350 mg/kg and the selectivity ratio was less than 7. The molecule further came in with an LD50 in data set [7] of 300 to 6000 mg/kg.
With `CCCCC1C(=O)N(c2ccccc2)N(c2ccccc2)C1=O` [compound F, phenylbutazone], the 50% effective dose (ED50) with adjuvant arthritis [1] was found to be 37 mg/kg. Besides, the “Adjuvant arthritis Perper (2) ED50” value in the data set on adjuvant arthritis [2] (up to 75 (mg/kg)) was “inactive”. Besides, the “Allergic encephalomyelitis (3) % inhibition” value in data set [3] (dose 75 mg/kg oral) is on record as 0%.

One may read the ED50 as the dose that gives a 50% effect, or the effect in half of the subjects. For orientation: LD50 means the dose expected to kill half of the subjects tested. A higher LD50 goes with lower toxicity.

The values are drawn from patent publication US4284786A, “5-Methylisoxazole-4-carboxylic-(4-trifluoromethyl)-anilide” (priority 1978, dated 1981).
